How the values were obtained:
[1] = target: T1, EGFR TMLR (T790M/L858R), H1975 cell line (Homo sapiens, UniProt P00533, L858R/T790M); assay: HTRF Phospho EGFR TMLR Assay (Cellular); assay type: cell-based; conditions: H1975 cells, 16 hours compound incubation
T1 construct: H1975 cell line (CRL-5908; Lot BA70803) was obtained from American Type Culture Collection; host or cells: H1975
Protocol: HTRF Phospho EGFR TMLR Assay (Cellular)
H1975 cell line (CRL-5908; Lot BA70803) was obtained from American Type Culture Collection (Manassas, Va., USA). Cells were maintained at 37° C., 5% CO2 in complete Media RPMI 1640 without phenol red containing 0.3 mg/ml glutamine, 100 IU/ml penicillin, and […] streptomycin (Gibco, 15140-122) supplemented with 10% fetal bovine serum (FBS, Gibco, 10091-148). Compounds were diluted into starving medium RPMI 1640 Media (Gibco, 11835-030) without phenol red containing 0.3 mg/ml glutamine, 100 IU/ml penicillin, and […] streptomycin (Gibco).
Cells were cultured for 24 h in a 384-well plate (Greiner Bio-One, Nr. 784-080; 5000 cells/well) using 8 μl of complete medium/well. Then 4 μl/well of the 3× compound solution, containing a factor 3 dilution series of the compound or DMSO in starving medium, were added to the cells (final DMSO 0.33%). After 16 hours at 37° C., 5% CO2, 95% rel. humidity cells were lysed by adding to the compound mix 4 μl/well of the supplemented lysis buffer (Cis-bio, Phospho-EGFR HTRF kit, 64EG1PEH), followed by incubation for 30 min at room temperature with shaking (400 rpm). Then 4 μl of a mixture of anti-Phospho-EGFR Cryptate and of anti-Phospho-EGFR-d2 antibody solutions prepared in the detection buffer was added. The plates were then incubated for 4 h at room temperature before reading the fluorescence emission at 620 and 665 nm using an Envision reader (Perkin Elmer).

[2] = target: T2, EGFR TMLRCS (T790M/L858R/C797S), BaF3-TMLRCS cell line (Homo sapiens, UniProt P00533, C797S/L858R/T790M); assay: HTRF Phospho EGFR TMLRCS Assay (Cellular); assay type: cell-based; conditions: BaF3-TMLRCS cells, 4 hours compound incubation
T2 construct: host or cells: BaF3
T2 sequence (P00533 25-1210 T790M/C797S/L858R): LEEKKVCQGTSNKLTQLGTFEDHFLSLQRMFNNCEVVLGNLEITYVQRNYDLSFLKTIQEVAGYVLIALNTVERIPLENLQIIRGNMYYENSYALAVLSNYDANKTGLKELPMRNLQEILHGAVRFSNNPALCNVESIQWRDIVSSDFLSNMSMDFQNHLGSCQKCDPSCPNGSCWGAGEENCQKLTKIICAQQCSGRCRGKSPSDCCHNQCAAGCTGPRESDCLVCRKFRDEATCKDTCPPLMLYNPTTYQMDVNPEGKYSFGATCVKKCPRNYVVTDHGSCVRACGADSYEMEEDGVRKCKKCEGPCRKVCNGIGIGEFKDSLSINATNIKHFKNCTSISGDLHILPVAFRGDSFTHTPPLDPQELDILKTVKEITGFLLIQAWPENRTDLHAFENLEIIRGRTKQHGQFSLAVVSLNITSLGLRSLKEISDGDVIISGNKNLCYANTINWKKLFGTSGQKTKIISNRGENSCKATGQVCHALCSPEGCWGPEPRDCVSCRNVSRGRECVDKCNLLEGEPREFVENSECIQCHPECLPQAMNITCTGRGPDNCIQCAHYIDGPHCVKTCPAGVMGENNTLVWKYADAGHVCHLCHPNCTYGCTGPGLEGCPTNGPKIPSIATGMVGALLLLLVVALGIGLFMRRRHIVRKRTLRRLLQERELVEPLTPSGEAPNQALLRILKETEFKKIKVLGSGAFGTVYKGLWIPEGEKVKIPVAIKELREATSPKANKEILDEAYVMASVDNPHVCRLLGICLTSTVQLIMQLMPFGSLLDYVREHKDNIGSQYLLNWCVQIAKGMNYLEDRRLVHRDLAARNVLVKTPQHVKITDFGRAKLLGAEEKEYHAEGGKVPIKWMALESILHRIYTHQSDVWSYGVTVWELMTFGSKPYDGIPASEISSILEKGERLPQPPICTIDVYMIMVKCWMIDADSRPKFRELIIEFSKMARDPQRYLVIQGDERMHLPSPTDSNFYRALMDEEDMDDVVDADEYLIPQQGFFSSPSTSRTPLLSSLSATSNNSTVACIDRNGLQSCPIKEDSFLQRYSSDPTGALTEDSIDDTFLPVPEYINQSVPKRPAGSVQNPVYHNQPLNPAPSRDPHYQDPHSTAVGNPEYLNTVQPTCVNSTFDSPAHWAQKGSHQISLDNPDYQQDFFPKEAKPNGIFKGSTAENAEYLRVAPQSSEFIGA
Protocol: HTRF Phospho EGFR TMLRCS Assay (Cellular)
BaF3-TMLRCS cell line were obtained from Crownbio (San Diego, Calif., USA). Cells were maintained at 37° C., 5% CO2 in RPMI ATCC (Gibco 31870) +2mM Glutamine+0.5 μg/ml Puromycin supplemented with 10% fetal bovine serum (FBS) (Gibco).
Cells are transferred as above to Greiner Bio-One, Nr. 784-08 micro-titerplate at 20000 cells/well in 12.5 μl of growth medium/well after the plates had been pre-filled with 12.5 nl of DMSO solutions of the to be tested compounds (in dose response) or DMSO only. After spinning the plates at 300×g for 30 seconds the cells were incubated for 4 hours at 37 C, 5% CO2, 95% humidity. The cells were lysed by adding to the compound mix 4 μl/well of the supplemented lysis buffer (Cis-bio, Phospho-EGFR HTRF kit, 64EG1PEH), followed by incubation for 30 min at room temperature with shaking (400 rpm). The plates were then frozen and stored overnight at −80 C. On the next day and after thawing the plates, 4 μl of a mixture of anti-Phospho-EGFR Cryptate and of anti-Phospho-EGFR-d2 antibody solutions prepared in the supplied detection buffer was added to each well. The lidded plates were then incubated for 4 h at room temperature before reading the fluorescence emission at 616 and 665 nm using an Envision reader (Perkin Elmer). Data was analyzed in similar fashion as above using the normalized ratio of the 665 to 616 signals multiplied by 10000.

T1 sequence (P00533 25-1210 T790M/L858R): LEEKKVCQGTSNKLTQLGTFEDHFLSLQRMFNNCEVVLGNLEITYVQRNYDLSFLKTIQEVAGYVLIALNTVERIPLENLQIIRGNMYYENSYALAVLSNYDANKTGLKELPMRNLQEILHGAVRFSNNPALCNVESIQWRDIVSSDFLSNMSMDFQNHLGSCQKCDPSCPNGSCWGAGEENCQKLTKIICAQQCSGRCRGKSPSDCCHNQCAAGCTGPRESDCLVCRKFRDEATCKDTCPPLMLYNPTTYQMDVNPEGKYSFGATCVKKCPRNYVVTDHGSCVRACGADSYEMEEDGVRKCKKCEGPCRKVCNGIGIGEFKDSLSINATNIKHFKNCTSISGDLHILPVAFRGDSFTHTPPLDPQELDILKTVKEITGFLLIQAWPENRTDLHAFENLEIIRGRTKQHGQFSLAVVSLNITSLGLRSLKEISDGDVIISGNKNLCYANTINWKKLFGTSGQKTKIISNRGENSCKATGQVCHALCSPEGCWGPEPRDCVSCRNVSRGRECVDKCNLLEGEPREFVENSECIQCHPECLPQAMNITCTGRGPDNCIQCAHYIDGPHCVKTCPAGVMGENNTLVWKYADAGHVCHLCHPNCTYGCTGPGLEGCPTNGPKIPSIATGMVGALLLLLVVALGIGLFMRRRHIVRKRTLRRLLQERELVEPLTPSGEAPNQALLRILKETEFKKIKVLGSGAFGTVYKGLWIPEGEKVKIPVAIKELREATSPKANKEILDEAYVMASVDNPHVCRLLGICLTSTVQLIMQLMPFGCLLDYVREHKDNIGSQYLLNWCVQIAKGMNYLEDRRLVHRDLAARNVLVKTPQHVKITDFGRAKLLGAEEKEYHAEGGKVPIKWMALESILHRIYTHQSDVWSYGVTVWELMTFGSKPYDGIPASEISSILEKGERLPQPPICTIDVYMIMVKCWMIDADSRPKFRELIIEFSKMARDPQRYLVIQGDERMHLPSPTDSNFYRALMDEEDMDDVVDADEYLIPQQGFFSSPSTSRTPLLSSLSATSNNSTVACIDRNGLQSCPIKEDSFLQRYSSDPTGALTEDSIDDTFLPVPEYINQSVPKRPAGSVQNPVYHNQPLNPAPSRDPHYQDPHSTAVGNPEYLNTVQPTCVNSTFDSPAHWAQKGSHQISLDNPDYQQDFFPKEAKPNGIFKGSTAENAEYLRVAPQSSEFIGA

Row | IC50 [1] [nM] | IC50 [2] [nM] | Structure (SMILES)
1 | 1 | 7 | COc1c(-c2ccc(N3CCOCC3)cc2)cc(Cl)c2cn(C(C(=O)Nc3nccs3)c3ncn4c3C[C@@H](F)C4)nc12 (mixture of isomers) [Example 19, 2-[4-Chloro-7-methoxy-6-(4-morpholin-4-ylphenyl)indazol-2-yl]-2-[rac-(6R)-6-fluoro-6,7-dihydro-5H-pyrrolo[1,2-c]imidazol-1-yl]-N-(1,3-thiazol-2-yl)acetamide]
2 | 3 | 22 | O=C(Nc1nccs1)C(c1ncn2c1CCC2)n1cc2c(Cl)cc(-c3ccc(N4CCOCC4)cc3)c(Cl)c2n1 (stereo not drawn) [Example 14, 2-(4,7-Dichloro-6-(4-morpholinophenyl)-2H-indazol-2-yl)-2-(6,7-dihydro-5H-pyrrolo[1,2-c]imidazol-1-yl)-N-(thiazol-2-yl)acetamide]
3 | 2 | – | O=C(Nc1nccs1)C(c1ncn2c1CCC2)n1cc2c(Cl)cc(-c3ccc(N4CCOCC4)c(F)c3)c(F)c2n1 (stereo not drawn) [Example 17, 2-(4-Chloro-7-fluoro-6-(3-fluoro-4-morpholinophenyl)-2H-indazol-2-yl)-2-(6,7-dihydro-5H-pyrrolo[1,2-c]imidazol-1-yl)-N-(thiazol-2-yl)acetamide]

Further lines, the compound ahead of its results:

Row | Structure (SMILES) | IC50 [1] [nM] | IC50 [2] [nM]
4 | O=C(Nc1nccs1)C(c1ncn2c1CCC2)n1cc2c(F)cc(-c3ccc(N4CCOCC4)c(F)c3)cc2n1 (stereo not drawn) [Example 11, 2-(6,7-Dihydro-5H-pyrrolo[1,2-c]imidazol-1-yl)-2-(4-fluoro-6-(3-fluoro-4-morpholinophenyl)-2H-indazol-2-yl)-N-(thiazol-2-yl)acetamide] | 1 | –
5 | O=C(Nc1nccs1)C(c1ncn2c1CCC2)n1cc2c(Cl)cc(-c3ccc(N4CCOCC4)cc3)c(F)c2n1 (stereo not drawn) [Example 10, 2-(4-Chloro-7-fluoro-6-(4-morpholinophenyl)-2H-indazol-2-yl)-2-(6,7-dihydro-5H-pyrrolo[1,2-c]imidazol-1-yl)-N-(thiazol-2-yl)acetamide] | 1 | –
6 | O=C(Nc1nccs1)C(c1ncn2c1C[C@@H](F)C2)n1cc2c(F)cc(-c3ccc(N4CCOCC4)c(F)c3)cc2n1 (stereo partly drawn) [Example 5, 2-((R)-6-Fluoro-6,7-dihydro-5H-pyrrolo[1,2-c]imidazol-1-yl)-2-(4-fluoro-6-(3-fluoro-4-morpholinophenyl)-2H-indazol-2-yl)-N-(thiazol-2-yl)acetamide] | 1 | 5

From patent publication US20220315593A1, “EGFR INHIBITORS FOR THE TREATMENT OF CANCER” (Hoffmann-La Roche Inc., priority 2019, published 2022)
